The subject of series [1] is carrageenan-induced paw edema. Briefly: Carrageenan paw test (hind paw edema, plethysmometer). In kind it is in vivo, male Long Evans derived rats. The note with it: for Result (Reduction of Edema): 1 h before carrageenan, paw volume 3 h after injection. Here is the method:
In this test, the test compound is administered to several rats. Thereafter, a paw on each rat is injected with a solution of carrageenan in order to induce edema in the paw as a measure of inflammation. After three hours, the volume of the paw is measured using a plethysmometer. Reduction of edema by 30% or more, as compared to a control group which was not given the test compound, is considered indicative of anti-inflammatory activity.
This very pure form of R-flurbiprofen, was tested for anti-inflammatory activity by the carrageenan paw test. Seven groups of eight male Long Evans derived rats weighing 150±20 grams were fasted overnight. One hour after oral administration a suspension of the test substance in 2% Tween 80, as documented in Table 1 below, the right hind paw of each rat was injected intraplantarly with 0.1 ml of a 1% suspension of carrageenan. Three hours after injection, the hind paw volume was measured using a plethysmometer and recorded.

Series [2] relates to carrageenan-induced paw edema. The note with it: cited from earlier work; for reduction of edema: dosage of 0.3 mg/kg, enantiomeric purity not disclosed.
The conditions of series [3]: humans; cited from earlier work.

For the molecule `CC(=O)Oc1ccccc1C(=O)O` [Aspirin, reference compound], in series [1] (150 mg/kg oral), the “Anti-Inflammatory Activity” value is “Yes (Reduction of edema by 30% or more, as compared to a control group which was not given the test compound, is considered indicative of anti-inflammatory activity)” and the “Result (Reduction of Edema)” value came out at 42%.
As for `C[C@@H](C(=O)O)c1ccc(-c2ccccc2)c(F)c1` [R-Flurbiprofen, R-flurbiprofen], the reduction of edema in series [2] is listed as 18%. The reduction in inflammation result in series [2] (highest dose, 2.5 mg/kg (not at 0.1, 0.3, 1 mg/kg)) was “statistically significant reduction in inflammation”. The “S-enantiomer in circulation at steady state (formed by inversion of the R-enantiomer)” value (“S-enantiomer in circulation” for short) in series [3] is 1.5%. The “Anti-Inflammatory Activity” value is given as “Yes (Reduction of edema by 30% or more, as compared to a control group which was not given the test compound, is considered indicative of anti-inflammatory activity)” in series [1] (5 mg/kg oral); “Yes (Reduction of edema by 30% or more, as compared to a control group which was not given the test compound, is considered indicative of anti-inflammatory activity)” in series [1] (10 mg/kg oral); “Yes (Reduction of edema by 30% or more, as compared to a control group which was not given the test compound, is considered indicative of anti-inflammatory activity)” in series [1] (20 mg/kg oral); “Yes (Reduction of edema by 30% or more, as compared to a control group which was not given the test compound, is considered indicative of anti-inflammatory activity)” in series [1] (40 mg/kg oral). Besides, the “Result (Reduction of Edema)” value in series [1] (5 mg/kg oral) came out at 30%; in series [1] (10 mg/kg oral), 41%; in series [1] (20 mg/kg oral), 47%; in series [1] (40 mg/kg oral), 51%.
In the case of `CCc1cccc2c3c([nH]c12)[C@@](CC)(CC(=O)O)OCC3` [R-etodolac], the “S-enantiomer in circulation” value in series [3] is 0%.
For `O=C(c1ccccc1)c1ccc2n1CC[C@H]2C(=O)O` [R-ketorolac], the “S-enantiomer in circulation” value in series [3] is 6%.
`C[C@H](C(=O)O)c1ccc(-c2ccccc2)c(F)c1` [S-flurbiprofen, reference compound]: in series [2], the reduction of edema is 64%.

The values are drawn from patent US6472433B2, “Method for treatment of inflammation with R-NSAIDS” (Loma Linda University Medical Center, priority 1999, dated 2002).
